From ChEMBL document CHEMBL1208792, “A novel series of [3.2.1] azabicyclic biaryl ethers as alpha3beta4 and alpha6/4beta4 nicotinic receptor agonists” (Bioorg Med Chem Lett, 2010) come the findings set out here.

For series [1], the target named is Neuronal acetylcholine receptor; alpha4/beta2 (Homo sapiens, UniProt P17787+P43681). Description: Displacement of [3H]epibatidine from alpha4beta2 nicotinic receptor expressed in human HEK293 cells. Type of series: cell-based. The conditions noted are these: read-out: Ki.
For series [2], the target named is Acetylcholine receptor; alpha1/beta1/delta/gamma (Homo sapiens, UniProt P02708+P07510+P11230+Q07001). The series is described as follows: Binding affinity to alpha-1-beta-gamma-delta nicotinic receptor. The class given is protein-complex assay.
For series [3], the target named is T1, Neuronal acetylcholine receptor; alpha3/beta4 (Homo sapiens, UniProt P30926+P32297). The series is described as follows: Displacement of [3H]epibatidine from alpha3beta4 nicotinic receptor expressed in human HEK293 cells. The class given is cell-based.
A short description of series [4]: Displacement of [3H]epibatidine from alpha6/4beta4 nicotinic receptor expressed in human HEK293 cells. Type of series: cell-based. In general terms: Loss of bound radioactivity is the signal in a displacement assay; it reports binding, not function.
The target of series [5] is Neuronal acetylcholine receptor subunit alpha-7 (Homo sapiens, UniProt P36544). The series is described as follows: Displacement of [3H]epibatidine from alpha7 nicotinic receptor expressed in human HEK293 cells. Type of series: cell-based.
Series [6] concerns the target T1, Neuronal acetylcholine receptor; alpha3/beta4. Description: Agonist activity at alpha3beta4 nicotinic receptor expressed in human HEK cells assessed as intracellular calcium efflux by FLIPR. (In general: Calcium assays in cells follow changes in intracellular calcium, usually with a dye or a luminescent sensor.)
Series [7] can be described thus: Agonist activity at human alpha6/4beta4 nicotinic receptor expressed in human HEK cells assessed as intracellular calcium […] by FLIPR. The class given is functional, cell-based, HEK293. As to conditions: read-out: EC50; call rule not given here.
The nature of series [8]: Agonist activity at human alpha6/4beta4 nicotinic receptor expressed in human HEK cells assessed as intracellular calcium […] by FLIPR relative to control. The class given is functional, HEK293.
Series [9] is described as follows: (§1) Apparent permeability from apical to basolateral side of MDCK cells. The class given is ADME, cell-based, Canis lupus familiaris. The conditions noted are these: dog.
Series [10] addresses Voltage-gated inwardly rectifying potassium channel KCNH2 (Homo sapiens, UniProt Q12809). The series is described as follows: Displacement of [3H]dofetilide from human ERG expressed in HEK293 cells. Type of series: cell-based. As to conditions: hek293.
Series [11] relates to Mus musculus. Description: Antipsychotic effect in sc dosed CD1 mouse assessed as inhibition of mescaline-induced scratching behavioral response. Type of series: functional.
For series [12], the system named is human MDR (P-glycoprotein). Description: (§2) Efflux ratio of permeability from basolateral to apical side over apical to basolateral side of MDCK cells expressing human MDR gene. Type of series: ADME, cell-based, Canis lupus familiaris. As to conditions: dog, MDCK-MDR1.
The subject of series [13] is Mus musculus. The series is described as follows: Antipsychotic effect in sc dosed CD1 mouse assessed as prepulse inhibition. Type of series: functional. As to conditions: read-out: MED.
The test system of series [14] is MDCK. The series is described as §1. Type of series: ADME, cell-based, Canis lupus familiaris. The conditions noted are these: dog.
Series [15] deals with MDCK. Described as §2. The class given is ADME, cell-based, Canis lupus familiaris. The conditions noted are these: dog, MDCK.
The target in series [16] is T1, Neuronal acetylcholine receptor; alpha3/beta4. The series is described as follows: Agonist activity at alpha3beta4 nicotinic receptor expressed in human HEK cells assessed as intracellular calcium […] by FLIPR relative to control. Type of series: functional, cell-based. The conditions noted are these: HEK293.

A value given as a limit tells only on which side of the number the result lay.

T1 sequence (P30926 whole entry): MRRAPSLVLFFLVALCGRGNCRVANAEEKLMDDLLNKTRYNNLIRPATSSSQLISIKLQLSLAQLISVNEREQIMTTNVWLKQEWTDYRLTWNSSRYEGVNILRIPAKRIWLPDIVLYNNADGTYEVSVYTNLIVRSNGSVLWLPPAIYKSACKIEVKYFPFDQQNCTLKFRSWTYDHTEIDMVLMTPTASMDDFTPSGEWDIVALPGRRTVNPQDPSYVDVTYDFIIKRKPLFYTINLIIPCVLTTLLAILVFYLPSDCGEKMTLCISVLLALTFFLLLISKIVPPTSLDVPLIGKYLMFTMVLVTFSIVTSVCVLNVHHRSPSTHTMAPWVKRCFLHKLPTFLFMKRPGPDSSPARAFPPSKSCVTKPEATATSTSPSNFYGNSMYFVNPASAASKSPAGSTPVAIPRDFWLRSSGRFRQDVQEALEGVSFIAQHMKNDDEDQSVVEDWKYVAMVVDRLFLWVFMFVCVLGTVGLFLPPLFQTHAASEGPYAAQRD
T1 sequence (P32297 whole entry): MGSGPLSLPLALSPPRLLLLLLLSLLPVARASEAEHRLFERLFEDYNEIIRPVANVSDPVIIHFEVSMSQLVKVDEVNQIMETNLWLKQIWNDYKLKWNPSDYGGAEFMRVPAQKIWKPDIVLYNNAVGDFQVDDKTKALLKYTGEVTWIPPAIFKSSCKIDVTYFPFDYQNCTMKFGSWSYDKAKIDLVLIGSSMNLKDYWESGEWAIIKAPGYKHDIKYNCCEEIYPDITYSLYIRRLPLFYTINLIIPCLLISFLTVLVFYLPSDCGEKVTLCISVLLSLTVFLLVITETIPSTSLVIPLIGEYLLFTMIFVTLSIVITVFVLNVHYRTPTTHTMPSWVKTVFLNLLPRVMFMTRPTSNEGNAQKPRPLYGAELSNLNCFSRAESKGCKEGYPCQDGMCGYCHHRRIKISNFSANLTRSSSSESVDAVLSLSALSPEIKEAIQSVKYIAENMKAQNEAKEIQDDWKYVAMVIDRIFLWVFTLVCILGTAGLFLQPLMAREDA
Sequence of Voltage-gated inwardly rectifying potassium channel KCNH2 (Q12809 whole entry): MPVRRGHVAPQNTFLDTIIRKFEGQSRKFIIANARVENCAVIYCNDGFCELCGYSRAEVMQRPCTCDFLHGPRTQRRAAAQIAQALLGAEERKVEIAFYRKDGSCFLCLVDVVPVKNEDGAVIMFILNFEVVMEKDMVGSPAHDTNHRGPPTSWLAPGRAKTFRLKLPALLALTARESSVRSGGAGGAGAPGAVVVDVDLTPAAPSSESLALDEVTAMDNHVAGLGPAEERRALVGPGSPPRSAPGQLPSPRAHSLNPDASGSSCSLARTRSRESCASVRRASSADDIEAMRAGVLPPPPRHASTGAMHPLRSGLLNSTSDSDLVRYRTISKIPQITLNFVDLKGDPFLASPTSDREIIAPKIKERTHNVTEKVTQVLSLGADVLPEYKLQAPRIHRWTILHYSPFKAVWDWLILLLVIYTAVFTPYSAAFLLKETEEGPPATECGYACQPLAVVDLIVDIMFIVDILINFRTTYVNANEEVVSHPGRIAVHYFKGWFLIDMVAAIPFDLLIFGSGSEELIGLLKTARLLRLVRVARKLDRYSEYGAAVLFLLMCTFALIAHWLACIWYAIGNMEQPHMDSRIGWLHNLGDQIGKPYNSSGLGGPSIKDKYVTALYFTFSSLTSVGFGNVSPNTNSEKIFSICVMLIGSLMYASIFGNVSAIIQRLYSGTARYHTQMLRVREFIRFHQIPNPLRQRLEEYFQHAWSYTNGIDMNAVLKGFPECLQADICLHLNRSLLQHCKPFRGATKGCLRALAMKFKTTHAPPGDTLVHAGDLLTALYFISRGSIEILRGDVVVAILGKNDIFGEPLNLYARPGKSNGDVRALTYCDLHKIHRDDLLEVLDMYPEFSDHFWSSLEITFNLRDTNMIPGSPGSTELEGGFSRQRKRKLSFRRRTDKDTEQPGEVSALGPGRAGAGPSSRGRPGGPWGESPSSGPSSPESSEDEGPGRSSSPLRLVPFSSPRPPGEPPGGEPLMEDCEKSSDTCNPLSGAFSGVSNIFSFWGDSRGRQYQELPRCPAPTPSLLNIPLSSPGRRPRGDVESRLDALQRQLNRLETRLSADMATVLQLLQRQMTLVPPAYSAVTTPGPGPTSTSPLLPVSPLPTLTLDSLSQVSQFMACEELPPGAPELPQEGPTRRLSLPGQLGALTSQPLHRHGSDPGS
Sequence of Neuronal acetylcholine receptor; alpha4/beta2 (P17787 whole entry): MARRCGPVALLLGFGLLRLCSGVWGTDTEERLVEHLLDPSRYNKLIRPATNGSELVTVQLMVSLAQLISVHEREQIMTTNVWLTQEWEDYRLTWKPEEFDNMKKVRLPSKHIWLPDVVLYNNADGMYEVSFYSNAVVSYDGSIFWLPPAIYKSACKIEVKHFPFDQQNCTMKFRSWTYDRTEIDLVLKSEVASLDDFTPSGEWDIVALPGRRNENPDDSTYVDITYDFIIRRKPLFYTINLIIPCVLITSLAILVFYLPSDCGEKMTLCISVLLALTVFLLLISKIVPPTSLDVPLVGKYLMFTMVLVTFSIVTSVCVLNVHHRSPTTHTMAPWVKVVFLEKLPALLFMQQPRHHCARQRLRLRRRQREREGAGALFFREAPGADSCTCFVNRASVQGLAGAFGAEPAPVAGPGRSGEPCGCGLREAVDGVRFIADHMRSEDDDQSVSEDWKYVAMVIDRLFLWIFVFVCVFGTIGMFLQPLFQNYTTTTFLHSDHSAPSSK
Sequence of Neuronal acetylcholine receptor; alpha4/beta2 (P43681 whole entry): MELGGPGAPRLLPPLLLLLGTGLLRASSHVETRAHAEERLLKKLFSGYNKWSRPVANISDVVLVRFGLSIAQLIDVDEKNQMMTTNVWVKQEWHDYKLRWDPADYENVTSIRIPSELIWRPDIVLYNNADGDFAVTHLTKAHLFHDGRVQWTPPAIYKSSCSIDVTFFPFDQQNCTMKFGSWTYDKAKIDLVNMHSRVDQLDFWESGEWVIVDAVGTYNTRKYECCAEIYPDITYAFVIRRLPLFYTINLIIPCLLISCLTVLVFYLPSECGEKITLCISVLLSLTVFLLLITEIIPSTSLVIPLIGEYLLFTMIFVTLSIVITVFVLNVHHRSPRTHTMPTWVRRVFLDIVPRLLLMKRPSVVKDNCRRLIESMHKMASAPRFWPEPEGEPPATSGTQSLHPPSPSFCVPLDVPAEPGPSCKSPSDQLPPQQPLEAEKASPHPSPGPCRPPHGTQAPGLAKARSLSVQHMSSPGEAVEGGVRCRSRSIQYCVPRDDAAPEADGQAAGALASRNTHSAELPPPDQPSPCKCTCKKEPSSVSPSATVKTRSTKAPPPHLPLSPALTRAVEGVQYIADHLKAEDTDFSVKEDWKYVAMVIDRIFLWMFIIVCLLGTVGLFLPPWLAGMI
Sequence of Neuronal acetylcholine receptor subunit alpha-7 (P36544 whole entry): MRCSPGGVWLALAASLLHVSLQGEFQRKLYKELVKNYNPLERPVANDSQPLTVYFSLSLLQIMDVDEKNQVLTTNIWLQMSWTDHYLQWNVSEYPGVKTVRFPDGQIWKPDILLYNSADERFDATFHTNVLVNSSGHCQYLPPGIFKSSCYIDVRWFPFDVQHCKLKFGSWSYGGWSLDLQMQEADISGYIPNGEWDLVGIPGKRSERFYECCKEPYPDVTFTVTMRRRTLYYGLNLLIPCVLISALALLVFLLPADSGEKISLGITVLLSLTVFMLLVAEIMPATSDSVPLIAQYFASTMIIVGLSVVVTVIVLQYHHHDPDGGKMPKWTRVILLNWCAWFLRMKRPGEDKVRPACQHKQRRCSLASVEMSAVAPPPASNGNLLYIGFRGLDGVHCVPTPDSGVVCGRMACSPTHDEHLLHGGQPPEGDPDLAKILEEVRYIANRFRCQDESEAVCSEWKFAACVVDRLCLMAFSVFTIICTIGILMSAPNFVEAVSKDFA

Regarding `CS(=O)(=O)Nc1cncc(-c2ccccc2O[C@H]2C[C@@H]3CNC[C@H]2C3)c1.Cl`, the Ki (as a rule, the dissociation constant of the complex between target and ligand, obtained from inhibition or displacement) in series [1] was 336 nM; in series [2] it was 11700 nM; in [3] it was 0.158 nM; in series [4] it was 0.168 nM; in [5] it was 4780 nM; in series [10] it was “Not Active”. For the same compound, the EC50 – broadly, the concentration giving half of the maximal effect – is 3.06 nM in [6] and 3.27 nM in series [7] (hek293). In series [8], the Efficacy turned out to be 148%. Also, in [9], the Papp A→B (as a rule, how fast a substance crosses the layer from the apical side) was found to be 1.17 ×10⁻⁶ cm/s. For the same compound, in [11] (read-out: ID50 (the source's name)), the ED50 came to 0.66 mg/kg. Moreover, the minimal effective dose in series [11] (read-out: MED) is 0.1 mg/kg; in [13] it was 3.2 mg/kg. For the same compound, in [12], the efflux ratio (as a rule, the permeability from basolateral to apical divided by that in the opposite direction, in the common usage) worked out at 4.38.

`Cl.Oc1cncc(-c2ccccc2O[C@H]2C[C@@H]3CNC[C@H]2C3)c1`: the Ki in series [1] is 252 nM; in [2], 1680 nM; in series [3] it was 0.748 nM; in [4], 0.177 nM; in series [5], above 13500 nM; in [10], “Not Active”. Also, the EC50 in [6] came out at 2.99 nM; in series [7] (hek293), 279 nM. Moreover, the Efficacy in series [8] is recorded as 230%. Moreover, the Papp (usually the rate of passage across a membrane or cell layer, normalised by area and donor concentration) in [14] worked out at 3.36 ×10⁻⁶ cm/s. In addition, in series [15], the Ratio came out at 5.02.

For `Cl.c1cncc(-c2ccccc2O[C@H]2C[C@@H]3CNC[C@H]2C3)c1`, the Ki in series [1] was above 832 nM; in series [2] it was 1020 nM; in series [3] it was 1.21 nM; in [4], 2.15 nM; in [5] it was 3300 nM; in series [10] it was “Not Active”. Also, the EC50 in [6] was below 100 nM. Also, in series [8], the Efficacy came out at 35%. In series [14], the Papp is listed as 28.7 ×10⁻⁶ cm/s. Moreover, the Ratio in series [15] amounted to 1.65.

For `CS(=O)(=O)Nc1cncc(-c2ccccc2O[C@@H]2C[C@H]3CNC[C@@H]2C3)c1.Cl`, the Ki in series [1] was 2900 nM; in series [2] it was above 15000 nM; in series [3], 1.33 nM; in series [4], 3.73 nM; in [5], above 15000 nM; in series [10], “Not Active”. The EC50 in series [6] worked out at 2.92 nM; in series [7] (Homo sapiens, HEK293) it was 2.27 nM. In addition, the Efficacy came to 122% in series [16] and 182% in [8]. For the same compound, in series [9], the apical-to-basolateral permeability (Papp A→B) was 0.84 ×10⁻⁶ cm/s. Besides, in series [12], the efflux ratio was 4.65.
